Measured values taken from patent US11180474B2 (BRISTOL-MYERS SQUIBB COMPANY, priority 2016, dated 2021).

Key:
human TLR8 = biological target: T1, human TLR8 (Homo sapiens, UniProt Q9NR97); experiment: TLR8 inhibition reporter assay (HEK-Blue cells, SEAP reporter, R848 stimulation); assay type: cell-based; conditions: HEK-Blue cells overexpressing human TLR8, R848 15.9 μM
T1 construct: host or cells: HEK-Blue cells
T1 sequence (Q9NR97 27-1041): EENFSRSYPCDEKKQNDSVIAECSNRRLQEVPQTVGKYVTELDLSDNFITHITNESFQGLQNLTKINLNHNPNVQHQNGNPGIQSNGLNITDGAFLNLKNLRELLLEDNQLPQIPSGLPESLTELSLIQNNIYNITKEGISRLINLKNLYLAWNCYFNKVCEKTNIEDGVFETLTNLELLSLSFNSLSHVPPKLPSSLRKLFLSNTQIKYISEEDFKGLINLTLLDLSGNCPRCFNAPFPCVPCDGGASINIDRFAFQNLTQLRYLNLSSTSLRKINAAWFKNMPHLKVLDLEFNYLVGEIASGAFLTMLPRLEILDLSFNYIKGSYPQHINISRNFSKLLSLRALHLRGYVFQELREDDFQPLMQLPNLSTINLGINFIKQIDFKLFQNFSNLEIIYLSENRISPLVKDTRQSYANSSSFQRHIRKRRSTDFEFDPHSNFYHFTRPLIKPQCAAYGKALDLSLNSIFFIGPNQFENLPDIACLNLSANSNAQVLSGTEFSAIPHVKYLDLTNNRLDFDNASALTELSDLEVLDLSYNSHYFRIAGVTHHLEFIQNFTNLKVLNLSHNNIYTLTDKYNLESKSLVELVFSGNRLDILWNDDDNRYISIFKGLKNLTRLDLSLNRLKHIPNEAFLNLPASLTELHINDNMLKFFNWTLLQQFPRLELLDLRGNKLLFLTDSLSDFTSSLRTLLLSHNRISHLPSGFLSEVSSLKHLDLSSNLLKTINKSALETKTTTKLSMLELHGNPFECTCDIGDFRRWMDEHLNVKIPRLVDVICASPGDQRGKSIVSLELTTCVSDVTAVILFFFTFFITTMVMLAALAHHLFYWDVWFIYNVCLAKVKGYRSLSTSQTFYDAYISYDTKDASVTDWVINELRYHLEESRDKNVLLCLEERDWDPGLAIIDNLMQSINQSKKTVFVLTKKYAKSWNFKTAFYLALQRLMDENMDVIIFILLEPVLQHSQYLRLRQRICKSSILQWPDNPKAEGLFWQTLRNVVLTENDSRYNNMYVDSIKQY
Outline: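 Cells (15000/well for TLR7, 20,000 for TLR8) were treated with compounds over 0.05 nM-50 μM final. After 22 h at 37° C, 5% CO2, SEAP was measured with HEK-Blue Detection reagent; percent inhibition was taken as reduction of agonist-plus-DMSO signal relative to a known inhibitor.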

TLR7 = experiment: In vivo mouse TLR7 PD model (gardiquimod challenge, plasma IL-6); conditions: oral
Method: In Vivo Mouse TLR7 and TLR9 PD Model:
Adult male C57BL/6 mice were used for the experiments. Mice (7 to 10 per group) were randomized into different treatment groups based on body weight. Mice from the respective treatment groups were administered orally with vehicle or test compound. Thirty min after the oral administration of vehicle or test compound, mice were challenged with intraperitoneal injection of gardiquimod for TLR7 PD model and CpG-ODN for TLR9 PD model. Ninety minutes after gardiquimod injection and 120 minutes after CpG-ODN injection, mice were bled under isoflurane anaesthesia and plasma IL-6 level was estimated by using commercially available ELISA kit (BD Biosciences). At the end of experiment, mean cytokine data was plotted and one way ANOVA with Dunnett's test was performed to calculate the significance of test compound treated group vs. vehicle control group. Percent inhibition of cytokine induction was calculated for test compound treated group vs vehicle control group.

IC50 (human TLR8) | SMILES | other results
1160 nM | COc1ccc(-c2[nH]c3ccc(C4CCN(CC(=O)N[C@H]5CC[C@H](C(C)(C)O)CC5)CC4)cc3c2C(C)C)cc1OC [Example 279, 2-(4-(2-(3,4-dimethoxyphenyl)-3-isopropyl-1H-indol-5-yl)piperidin-1-yl)-N-((1r,4r)-4-(2-hydroxypropan-2-yl)cyclohexyl)acetamide] | 
657 nM | COc1ccc(-c2[nH]c3ccc(C4CCN(C(=O)COC(C)C)CC4)cc3c2C(C)C)cc1OC [Example 314, 1-(4-(2-(3,4-dimethoxyphenyl)-3-isopropyl-1H-indol-5-yl)piperidin-1-yl)-2-isopropoxyethan-1-one] | 
27 nM | COc1ccc(-c2[nH]c3ccc(C4CCN(C(=O)CN5CCC[C@H](C(=O)NCC(N)=O)C5)CC4)cc3c2C(C)C)cc1OC [Example 298, (S)—N-(2-amino-2-oxoethyl)-1-(2-(4-(2-(3,4-dimethoxyphenyl)-3-isopropyl-1H-indol-5-yl)piperidin-1-yl)-2-oxoethyl)piperidine-3-carboxamide] | 
60 nM | COc1ccc(-c2[nH]c3ccc(C4CCN(C(=O)CN5CCC[C@@H](C(=O)N6C(C)CCC6C)C5)CC4)cc3c2C(C)C)cc1OC (stereo partly drawn) [Example 311, 1-(4-(2-(3,4-dimethoxyphenyl)-3-isopropyl-1H-indol-5-yl)piperidin-1-yl)-2-((3R)-3-(2,5-dimethylpyrrolidine-1-carbonyl)piperidin-1-yl)ethan-1-one] | 
19 nM | COc1ccc(-c2[nH]c3ccc(C4CCN(C(=O)CN5CCC[C@H](C(=O)N6CC[C@H](O)C6)C5)CC4)cc3c2C(C)C)cc1OC [Example 301, 1-(4-(2-(3,4-dimethoxyphenyl)-3-isopropyl-1H-indol-5-yl)piperidin-1-yl)-2-((S)-3-((S)-3-hydroxypyrrolidine-1-carbonyl)piperidin-1-yl)ethan-1-one] | 
28 nM | COc1ccc(-c2[nH]c3ccc(C4CCN(CC(=O)N(C)C)CC4)cc3c2C(C)C)cc1OC [Example 312, 2-(4-(2-(3,4-dimethoxyphenyl)-3-isopropyl-11H-indol-5-yl)piperidin-1-yl)-N,N-dimethylacetamide] | % inhibition of IL6 (TLR7; dose 0.001 mg/kg): 34%; % inhibition of IL6 (TLR7; dose 0.01 mg/kg): 39%; % inhibition of IL6 (TLR7; dose 0.1 mg/kg): 59%; % inhibition of IL6 (TLR7; dose 1 mg/kg): 82%
20 nM | COc1ccc(-c2[nH]c3ccc(C4CCN(Cc5cnc(C)[nH]5)CC4)cc3c2C(C)C)cc1OC [Example 266, 2-(3,4-dimethoxyphenyl)-3-isopropyl-5-(1-((2-methyl-1H-imidazol-5-yl)methyl)piperidin-4-yl)-1H-indole] | 
33 nM | COc1ccc(-c2[nH]c3ccc(C4CCN(C(=O)CN5CCC[C@H](C(=O)N6CCN(CCN7CCCC7)CC6)C5)CC4)cc3c2C(C)C)cc1OC [Example 293, (S)-1-(4-(2-(3,4-dimethoxyphenyl)-3-isopropyl-1H-indol-5-yl)piperidin-1-yl)-2-(3-(4-(2-(pyrrolidin-1-yl)ethyl)piperazine-1-carbonyl)piperidin-1-yl)ethan-1-one] | 
23 nM | COc1ccc(-c2[nH]c3ccc(C4CCN(Cc5nccn5C)CC4)cc3c2C(C)C)cc1OC [Example 262, 2-(3,4-dimethoxyphenyl)-3-isopropyl-5-(1-((1-methyl-1H-imidazol-2-yl)methyl)piperidin-4-yl)-1H-indole] | 
803 nM | COc1ccc(-c2[nH]c3ccc(C4CCN(C(=O)CN5CCC[C@H](C(=O)N6CCN(c7cccc(C(F)(F)F)c7)CC6)C5)CC4)cc3c2C(C)C)cc1OC [Example 290, (S)-1-(4-(2-(3,4-dimethoxyphenyl)-3-isopropyl-1H-indol-5-yl)piperidin-1-yl)-2-(3-(4-(3-(trifluoromethyl)phenyl)piperazine-1-carbonyl)piperidin-1-yl)ethan-1-one] | 
22 nM | COc1ccc(-c2[nH]c3ccc(C4CCN(C(=O)CN5CCC[C@H](C(=O)NCCNC(C)=O)C5)CC4)cc3c2C(C)C)cc1OC [Example 295, (S)—N-(2-acetamidoethyl)-1-(2-(4-(2-(3,4-dimethoxyphenyl)-3-isopropyl-1H-indol-5-yl)piperidin-1-yl)-2-oxoethyl) piperidine-3-carboxamide] | 
17 nM | COc1ccc(-c2[nH]c3ccc(C4CCN(C(=O)CN5CCC[C@H](C(=O)N6CCC(CCO)CC6)C5)CC4)cc3c2C(C)C)cc1OC [Example 291, (S)-1-(4-(2-(3,4-dimethoxyphenyl)-3-isopropyl-1H-indol-5-yl)piperidin-1-yl)-2-(3-(4-(2-hydroxyethyl)piperidine-1-carbonyl)piperidin-1-yl)ethan-1-one] | 

The next lines start with the compound.

SMILES | IC50 (human TLR8) | other results
COc1ccc(-c2[nH]c3ccc(C4CCN(C(=O)CN[C@@H](CO)CC(C)C)CC4)cc3c2C(C)C)cc1OC [Example 234, (R)-1-(4-(2-(3,4-dimethoxyphenyl)-3-isopropyl-1H-indol-5-yl)piperidin-1-yl)-2-((1-hydroxy-4-methylpentan-2-yl)amino) ethan-1-one] | 63 nM | 
CCN(CC)C(=O)C1CCCN(CC(=O)N2CCC(c3ccc4[nH]c(-c5ccc(OC)c(OC)c5)c(C(C)C)c4c3)CC2)C1 (stereo not shown) [Example 247, 1-(2-(4-(2-(3,4-dimethoxyphenyl)-3-isopropyl-1H-indol-5-yl)piperidin-1-yl)-2-oxoethyl)-N,N-diethylpiperidine-3-carboxamide] | 38 nM | 
COc1ccc(-c2[nH]c3ccc(C4CCN(C(=O)CN(C)CCO)CC4)cc3c2C(C)C)cc1OC [Example 242, 1-(4-(2-(3,4-dimethoxyphenyl)-3-isopropyl-1H-indol-5-yl)piperidin-1-yl)-2-((2-hydroxyethyl)(methyl)amino)ethan-1-one] | 14 nM | 
CCC(CO)NCC(=O)N1CCC(c2ccc3[nH]c(-c4ccc(OC)c(OC)c4)c(C(C)C)c3c2)CC1 (stereo not shown) [Example 233, 1-(4-(2-(3,4-dimethoxyphenyl)-3-isopropyl-1H-indol-5-yl)piperidin-1-yl)-2-((1-hydroxybutan-2-yl)amino)ethan-1-one] | 27 nM | 
COc1ccc(-c2[nH]c3ccc(C4CCN(C(=O)CN5CCN(C(C)C)CC5)CC4)cc3c2C(C)C)cc1OC [Example 240, 1-(4-(2-(3,4-dimethoxyphenyl)-3-isopropyl-1H-indol-5-yl)piperidin-1-yl)-2-(4-isopropylpiperazin-1-yl)ethan-1-one] | 34 nM | 
COc1ccc(-c2[nH]c3ccc(C4CCN(Cc5cnn(C)c5)CC4)cc3c2C(C)C)cc1OC [Example 259, 2-(3,4-dimethoxyphenyl)-3-isopropyl-5-(1-((1-methyl-1H-pyrazol-4-yl)methyl)piperidin-4-yl)-1H-indole] | 11 nM | 
COc1ccc(-c2[nH]c3ccc(C4CCN(C(=O)CN5CCC(O)CC5)CC4)cc3c2C(C)C)cc1OC [Example 238, 1-(4-(2-(3,4-dimethoxyphenyl)-3-isopropyl-1H-indol-5-yl)piperidin-1-yl)-2-(4-hydroxypiperidin-1-yl) ethan-1-one] | 5 nM | 
COc1ccc(-c2[nH]c3ccc(C4CCN(C(=O)CN5CCC(N(C)C)CC5)CC4)cc3c2C(C)C)cc1OC [Example 244, 1-(4-(2-(3,4-dimethoxyphenyl)-3-isopropyl-1H-indol-5-yl)piperidin-1-yl)-2-(4-(dimethylamino)piperidin-1-yl)ethan-1-one] | 16 nM | 
COc1ccc(-c2[nH]c3ccc(C4CCN(C(=O)CNC5CCC(C(C)(C)O)CC5)CC4)cc3c2C(C)C)cc1OC (stereo not shown) [Example 245, 1-(4-(2-(3,4-dimethoxyphenyl)-3-isopropyl-1H-indol-5-yl)piperidin-1-yl)-2-((4-(2-hydroxypropan-2-yl)cyclohexyl)amino)ethan-1-one] | 26 nM | 
